Source: patent US9255132B2, “Angiopoietin derived peptides” (Compugen Ltd., priority 2008, dated 2016)
Residues, ends and D or L forms follow the SMILES beside them.

Test system: avian chorioallantoic membrane (CAM)
Format: in vivo, Leghorn fertilized eggs
Conditions: for inhibition of vessel length: peptide 0.5 and 5 nmol/CAM, 48 h after treatment, vs vehicle control
Description: CGEN-G6 [SEQ ID NO: 6], CGEN-F9 [SEQ ID NO: 7], CGEN-F12 [SEQ ID NO: 8], CGEN-C6 [SEQ ID NO: 9], CGEN-A11 [SEQ ID NO: 10], and CGEN-G2 [SEQ ID NO: 11], were analyzed for their ability to affect angiogenesis using the in ovo avian chorioallantoic membrane (CAM) model of angiogenesis, which is widely used as a model to examine compounds affecting angiogenesis (Richardson and Singh 2003, Curr Drug Targets Cardiovasc Haematol Disord., 3(2):155-85). Two positive controls were used: fumagillin as a general anti-angiogenic compound, and Tie2 neutralizing antibody as anti-angiogenic inhibitor of the Ang/Tie2 pathway. Leghorn fertilized eggs were incubated for 4 days at 37° C., when a window was opened on the egg's shell, exposing the CAM. Two different doses of peptides (0.5 and 5 nmol/CAM), Tie-2 neutralizing antibody (R&D Systems, Cat#AF313, 10 μg/ml; 0.4 μg/CAM) or fumagillin (Tocris Bioscience, Cat #1768; 5 μg/CAM) were applied in a 40 μl volume inside an area of 1 cm^2 (restricted by a plastic ring) of the CAM on day 9 of embryo development. The appropriate vehicle controls were also tested. Forty-eight hours after treatment and subsequent incubation at 37° C., CAMs were fixed in situ, excised from the eggs, placed on slides and left to air-dry. Pictures were taken through a stereoscope equipped with a digital camera and the total length of the vessels was measured using image analysis software (NIH Image). For each group a total of 17-24 eggs from three different experiments were used. Data are presented as means±SEM and expressed as % of vehicle control. Statistical analysis (ANOVA followed by Dunnett's post-hoc test) was performed using Graph Pad.
FIG. 6 depict results obtained on vessel length with peptides CGEN-G6 [SEQ ID NO: 6], CGEN-F9 [SEQ ID NO: 7], CGEN-F12 [SEQ ID NO: 8], CGEN-C6 [SEQ ID NO: 9], CGEN-A11 [SEQ ID NO: 10], and CGEN-G2 [SEQ ID NO: 11], compared to Tie2 neutralizing antibody (Ab) and the anti-angiogenic compound fumagillin. Neutralizing Tie2 Ab blocked vessel length by 36%, while the angiogenesis inhibitor fumagillin blocked vessel length by 32%.

Row | Structure (SMILES) | inhibition of vessel length | inhibition of vessel length, rank among peptides (5 nmole)
1 | CSCC[C@H](NC(=O)[C@H](CC(C)C)NC(=O)[C@H](CC(=O)O)NC(C)=O)C(=O)N[C@@H](CCC(=O)O)C(=O)N[C@H](C(=O)N[C@H](C(=O)N[C@@H](CC(N)=O)C(=O)N[C@@H](CC(N)=O)C(=O)N[C@@H](CC(C)C)C(=O)N[C@@H](CC(C)C)C(=O)N[C@H](C(=O)N[C@@H](CCSC)C(=O)N[C@@H](CCSC)C(=O)N[C@@H](CO)C(=O)N[C@H](C(=O)N[C@@H](CO)C(=O)N[C@@H](CC(N)=O)C(=O)N[C@@H](CO)C(=O)N[C@@H](C)C(=O)N[C@@H](CCCCN)C(=O)N[C@@H](CC(=O)O)C(N)=O)[C@@H](C)O)[C@@H](C)O)C(C)C)[C@@H](C)O [CGEN-G6] (Ac-DLMETVNNLLTMMSTSNSAKD-NH2) | did not inhibit angiogenesis | –
2 | CC(=O)N[C@@H](CCC(=O)O)C(=O)N[C@H](C(=O)N[C@@H](Cc1ccccc1)C(=O)N[C@@H](CC(C)C)C(=O)N[C@@H](CO)C(=O)N[C@H](C(=O)N[C@@H](CC(N)=O)C(=O)N[C@@H](CCCCN)C(=O)N[C@@H](CC(C)C)C(=O)N[C@@H](CCC(=O)O)C(=O)N[C@@H](CC(N)=O)C(=O)N[C@@H](CCC(N)=O)C(N)=O)[C@@H](C)O)[C@@H](C)O [CGEN-A11, ETFLSTNKLENQ] (Ac-ETFLSTNKLENQ-NH2) | – | greatest effect
3 | CC[C@H](C)[C@H](NC(=O)[C@H](C)NC(=O)[C@H](CCCNC(=N)N)NC(=O)[C@H](CCC(=O)O)NC(=O)[C@H](CC(C)C)NC(=O)[C@H](CCCCN)NC(=O)[C@H](CCCCN)NC(=O)[C@H](CC(C)C)NC(=O)[C@H](Cc1c[nH]c2ccccc12)NC(=O)[C@H](CCC(N)=O)NC(=O)[C@@H](NC(=O)[C@H](CC(N)=O)NC(=O)[C@H](CC(N)=O)NC(=O)[C@H](CCC(N)=O)NC(=O)[C@H](CC(C)C)NC(=O)[C@H](C)NC(=O)[C@H](CCC(N)=O)NC(=O)[C@H](CCC(=O)O)NC(=O)[C@H](CC(C)C)NC(=O)[C@H](CCC(N)=O)NC(=O)[C@H](CCCCN)NC(=O)[C@@H](NC(=O)[C@H](CCC(N)=O)NC(=O)[C@H](CCC(N)=O)NC(=O)[C@@H](NC(C)=O)[C@@H](C)O)C(C)C)[C@@H](C)O)C(=O)N[C@@H](CCCCN)C(=O)N[C@H](C(=O)N[C@H](C(=O)N[C@@H](CC(C)C)C(N)=O)[C@@H](C)CC)[C@@H](C)O [CGEN-G2] (Ac-TQQVKQLEQALQNNTQWLKKLERAIKTIL-NH2) | did not inhibit angiogenesis | –
